The target of assay [1] is human activated kallikrein enzyme (Homo sapiens, UniProt P03952). Put plainly: Inhibition of human activated plasma kallikrein, fluorogenic peptide substrate (PFR-AMC), 500 pM enzyme format. Type of assay: biochemical. The following applies: 500 pM activated kallikrein, 30 min preincubation, 10 min reaction, room temperature, read-out: Primary Dose Response Assay: Average EC50. Put shortly: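 Enzyme at 500 pM with […] PFR-AMC in 20 mM Tris pH 7.5, 1 mM EDTA, 150 mM NaCl, 0.1% PEG-400, 0.1% Triton X-100. Inhibitor preincubated 30 min, then 10 min reaction at room temperature; AMC fluorescence read at 380 nm excitation/460 nm emission.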
Chain of human activated kallikrein enzyme (P03952 391-638 limits assumed): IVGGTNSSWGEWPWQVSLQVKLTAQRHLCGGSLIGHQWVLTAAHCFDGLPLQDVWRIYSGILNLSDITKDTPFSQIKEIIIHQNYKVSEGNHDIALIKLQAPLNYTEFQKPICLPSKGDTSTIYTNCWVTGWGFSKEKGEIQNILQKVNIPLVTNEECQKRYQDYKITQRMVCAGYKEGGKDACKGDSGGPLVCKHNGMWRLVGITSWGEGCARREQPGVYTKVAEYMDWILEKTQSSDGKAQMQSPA
Chain of human activated kallikrein enzyme (P03952 20-390 partner limits assumed): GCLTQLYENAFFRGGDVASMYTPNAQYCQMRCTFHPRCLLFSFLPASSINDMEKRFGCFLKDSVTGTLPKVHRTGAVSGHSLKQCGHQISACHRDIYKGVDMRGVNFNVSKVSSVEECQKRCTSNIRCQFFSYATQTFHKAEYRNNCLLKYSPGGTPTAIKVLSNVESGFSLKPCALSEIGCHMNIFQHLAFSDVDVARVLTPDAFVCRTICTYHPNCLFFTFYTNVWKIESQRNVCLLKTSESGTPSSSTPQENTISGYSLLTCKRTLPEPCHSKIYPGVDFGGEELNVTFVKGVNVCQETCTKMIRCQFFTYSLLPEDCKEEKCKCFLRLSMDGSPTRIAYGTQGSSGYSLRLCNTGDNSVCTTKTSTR

For a further assay, the target named is T1, plasma kallikrein (Homo sapiens, UniProt P03952).
T1 construct: from tissue; host or cells: sodium citrate collected human plasma
T1 sequence (P03952 391-638 limits assumed): as the sequence (P03952 391-638 limits assumed) above
T1 sequence (P03952 20-390 partner limits assumed): as the sequence (P03952 20-390 partner limits assumed) above
Put plainly: Neat human plasma assay (fluorogenic peptide), contact pathway-activated plasma. In kind it is biochemical. The following applies: citrated human plasma, 10 nM human FXIIa activation, 100 μM PFR-AMC, room temperature; read-out: Human Plasma Assay: IC90. The procedure:
To analyze inhibition of plasma kallikrein in an ex vivo setting, the potency of compounds was measure in contact pathway-activated plasma assays. In a fluorogenic peptide substrate assay, test compounds dissolved in DMSO were added to sodium citrate collected human or rat plasma in a 96-well microplate. Alternatively, citrated plasma was collected from rats administered the compounds orally or by IV. 10 nM of human FXIIa (Enzyme Research Laboratories) diluted in PKa buffer (20 mM Tris-HCl, pH 7.5, 150 mM NaCl, 1 mM EDTA, 0.100 PEG-8000, and 0.1% Triton X-100) was added to the plasma, followed by the 100 μM of the profluorescent, synthetic plasma kallikrein substrate PFR-AMC (also diluted in PKa buffer). Final plasma concentration in the reaction was […]. Fluorescence was immediately monitored by excitation/emission wavelengths of 360 nm/480 nm respectively over a period of 5 minutes in a microplate reader. The resulting linear increase in fluorescence emission (reflecting PKa proteolysis of PFR-AMC substrate) was fit to extract a proteolytic rate (fluorescent units over time), and this rate was subsequently plotted against compound inhibitor concentration. Resulting plots were fit to a standard 4-parameter IC50/C90 equation to determine min/max values, IC50/90, and slope. All experimental steps were performed at room temperature.

For orientation: EC50 means the midpoint of the concentration-response curve. As usually defined, the IC90 is the concentration at which the effect reaches the 90% level. Regarding `O=C(Nc1cc(NCc2nc3ccc(C4CC4)nn3n2)ccn1)[C@H]1C[C@@H]1c1cccc(Cl)c1` [Example 29, (1S,2S)-2-(3-chlorophenyl)-N-(4-(((6-cyclopropyl-[1,2,4]triazolo[1,5-b]pyridazin-2-yl)methyl)amino)pyridin-2-yl)cyclopropane-1-carboxamide], in assay [1], the half-maximal effective concentration (EC50) was in the range of 2.5 to 25 nM. In addition, the concentration for an effect of 90% (IC90) at plasma kallikrein fell in the range of 5000 to 65000 nM.

With `O=C(Nc1cc(NCc2nc3ncc(C4CC4)cn3n2)ccn1)[C@H]1C[C@@H]1c1cccc(Cl)c1` [Example 31, (1S,2S)-2-(3-chlorophenyl)-N-(4-(((6-cyclopropyl-[1,2,4]triazolo[1,5-a]pyrimidin-2-yl)methyl)amino)pyridin-2-yl)cyclopropane-1-carboxamide], the EC50 in assay [1] was less than 2.5 nM. In addition, the IC90 on plasma kallikrein lay within 500 to 5000 nM.

Regarding `O=C(Nc1nccc2nn(Cc3cn4nc(C5CC5)ccc4n3)cc12)[C@H]1C[C@@H]1c1cccc(Cl)c1` [Example 35, (1S,2S)-2-(3-chlorophenyl)-N-(2-((6-cyclopropylimidazo[1,2-b]pyridazin-2-yl)methyl)-2H-pyrazolo[4,3-c]pyridin-4-yl)cyclopropane-1-carboxamide], in assay [1], the half-maximal effective concentration (EC50) was less than 2.5 nM. The IC90 on plasma kallikrein was in the range of 500 to 5000 nM.

Regarding `CN1CCN(c2cc(C3CC3)nn3cc(CNc4cc(NC(=O)[C@H]5C[C@@H]5c5cccc(Cl)c5)ncn4)nc23)CC1` [Example 39, (1S,2S)-2-(3-chlorophenyl)-N-(6-(((6-cyclopropyl-8-(4-methylpiperazin-1-yl)imidazo[1,2-b]pyridazin-2-yl)methyl)amino)pyrimidin-4-yl)cyclopropane-1-carboxamide], in assay [1], the concentration giving a half-maximal response (EC50) was less than 2.5 nM. Besides, on plasma kallikrein, the IC90 fell in the range of 5000 to 65000 nM.

Consider `CN1CCN(c2cc(C3CC3)nn3cc(CNc4ccnc(NC(=O)[C@H]5C[C@@H]5c5cccc(Cl)c5)c4)nc23)CC1` [Example 40, (1S,2S)-2-(3-chlorophenyl)-N-(4-(((6-cyclopropyl-8-(4-methylpiperazin-1-yl)imidazo[1,2-b]pyridazin-2-yl)methyl)amino)pyridin-2-yl)cyclopropane-1-carboxamide], for which, in assay [1], the concentration giving a half-maximal response (EC50) was less than 2.5 nM. Further, the IC90 at plasma kallikrein was in the range of 500 to 5000 nM.

`CN1CCN(c2cc(C3CC3)cn3nc(CNc4ccnc(NC(=O)[C@H]5C[C@@H]5c5cccc(Cl)c5)c4)nc23)CC1` [Example 45, (1S,2S)-2-(3-chlorophenyl)-N-(4-(((6-cyclopropyl-8-(4-methylpiperazin-1-yl)-[1,2,4]triazolo[1,5-a]pyridin-2-yl)methyl)amino)pyridin-2-yl)cyclopropane-1-carboxamide]: the EC50 in assay [1] was less than 2.5 nM. Moreover, the IC90 at plasma kallikrein was 5000 to 65000 nM.

On to `O=C(Nc1cc(NCc2cn3nc(C4CC4)ccc3n2)ccn1)[C@H]1C[C@@H]1c1cccc(Cl)c1` [Example 46, (1S,2S)-2-(3-chlorophenyl)-N-(4-(((6-cyclopropylimidazo[1,2-b]pyridazin-2-yl)methyl)amino)pyridin-2-yl)cyclopropane-1-carboxamide], for which the concentration giving a half-maximal response (EC50) in assay [1] was less than 2.5 nM. The IC90 at plasma kallikrein lay within 5000 to 65000 nM.

For `O=C(Nc1cc(NCc2cc3cc(C4CC4)cc(N4CCOC4=O)n3n2)ncn1)[C@H]1C[C@@H]1c1cccc(Cl)c1` [Example 49, (1S,2S)-2-(3-chlorophenyl)-N-(6-(((5-cyclopropyl-7-(2-oxooxazolidin-3-yl)pyrazolo[1,5-a]pyridin-2-yl)methyl)amino)pyrimidin-4-yl)cyclopropane-1-carboxamide], the concentration giving a half-maximal response (EC50) in assay [1] is less than 2.5 nM. The IC90 at plasma kallikrein was 500 to 5000 nM.

Consider `O=C(Nc1cc(NCc2cc3cc(C4CC4)cc(N4CCCC4=O)n3n2)ncn1)[C@H]1C[C@@H]1c1cccc(Cl)c1` [Example 52, (1S,2S)-2-(3-chlorophenyl)-N-(6-(((5-cyclopropyl-7-(2-oxopyrrolidin-1-yl)pyrazolo[1,5-a]pyridin-2-yl)methyl)amino)pyrimidin-4-yl)cyclopropane-1-carboxamide], for which, in assay [1], the concentration giving a half-maximal response (EC50) was in the range of 2.5 to 25 nM. For the same compound, on plasma kallikrein, the 90% effect concentration (IC90) was 500 to 5000 nM.

For the compound `CN1CCN(c2cc(C3CC3)cc3cc(CNc4cc(NC(=O)[C@H]5C[C@@H]5c5cccc(Cl)c5)ncn4)nn23)CC1` [Example 53, (1S,2S)-2-(3-chlorophenyl)-N-(6-(((5-cyclopropyl-7-(4-methylpiperazin-1-yl)pyrazolo[1,5-a]pyridin-2-yl)methyl)amino)pyrimidin-4-yl)cyclopropane-1-carboxamide], the 50% effective concentration (EC50) in assay [1] was less than 2.5 nM. For the same compound, on plasma kallikrein, the IC90 was 500 to 5000 nM.

Regarding `CN1CCN(c2cc(C3CC3)cc3cc(CNc4ccnc(NC(=O)[C@H]5C[C@@H]5c5cccc(Cl)c5)c4)nn23)CC1` [Example 54, (1S,2S)-2-(3-chlorophenyl)-N-(4-(((5-cyclopropyl-7-(4-methylpiperazin-1-yl)pyrazolo[1,5-a]pyridin-2-yl)methyl)amino)pyridin-2-yl)cyclopropane-1-carboxamide], the 50% effective concentration (EC50) in assay [1] was less than 2.5 nM. Moreover, the IC90 at plasma kallikrein lay in the range of 500 to 5000 nM.

Regarding `O=C(Nc1cc(N2C[C@@H](O)C[C@@H]2c2cn3nc(C4CC4)ccc3n2)ncn1)[C@H]1C[C@@H]1c1cccc(Cl)c1` [Example 60, (1S,2S)-2-(3-chlorophenyl)-N-(6-((2R,4S)-2-(6-cyclopropylimidazo[1,2-b]pyridazin-2-yl)-4-hydroxypyrrolidin-1-yl)pyrimidin-4-yl)cyclopropane-1-carboxamide], in assay [1], the EC50 lay in the range of 2.5 to 25 nM. For the same compound, the IC90 on plasma kallikrein lay within 500 to 5000 nM.

Turning to `O=C(Nc1cc(N2C[C@@H](O)C[C@@H]2c2cn3nc(C4CC4)ccc3n2)ncn1)[C@H]1C[C@@H]1c1cc(Cl)ccn1` [Example 61, (1S,2S)-2-(4-chloropyridin-2-yl)-N-(6-((2R,4S)-2-(6-cyclopropylimidazo[1,2-b]pyridazin-2-yl)-4-hydroxypyrrolidin-1-yl)pyrimidin-4-yl)cyclopropane-1-carboxamide], the EC50 in assay [1] is less than 2.5 nM. Further, the 90% effect concentration (IC90) on plasma kallikrein was in the range of 500 to 5000 nM.

Turning to `CN1C(=O)CN(c2cc(C3CC3)nn3cc(CNc4cc(NC(=O)[C@H]5C[C@@H]5c5cc(Cl)ccn5)ncn4)nc23)C1=O` [Example 63, (1S,2S)-2-(4-chloropyridin-2-yl)-N-(6-(((6-cyclopropyl-8-(3-methyl-2,4-dioxoimidazolidin-1-yl)imidazo[1,2-b]pyridazin-2-yl)methyl)amino)pyrimidin-4-yl)cyclopropane-1-carboxamide], the EC50 in assay [1] is less than 2.5 nM. The IC90 at plasma kallikrein fell in the range of 500 to 5000 nM.

For `O=C(Nc1cc(NCc2cn3cc(C4CC4)cnc3n2)ncn1)[C@H]1C[C@@H]1c1cc(Cl)ccn1` [Example 66, (1S,2S)-2-(4-chloropyridin-2-yl)-N-(6-(((6-cyclopropylimidazo[1,2-a]pyrimidin-2-yl)methyl)amino)pyrimidin-4-yl)cyclopropane-1-carboxamide], in assay [1], the half-maximal effective concentration (EC50) is less than 2.5 nM. Moreover, the 90% effect concentration (IC90) at plasma kallikrein was 500 to 5000 nM.

Consider `O=C(Nc1cc(N2C[C@@H](O)C[C@@H]2c2cn3cc(C4CC4)cnc3n2)ncn1)[C@H]1C[C@@H]1c1cc(Cl)ccn1` [Example 73, (1S,2S)-2-(4-chloropyridin-2-yl)-N-(6-((2R,4S)-2-(6-cyclopropylimidazo[1,2-a]pyrimidin-2-yl)-4-hydroxypyrrolidin-1-yl)pyrimidin-4-yl)cyclopropane-1-carboxamide], for which the EC50 in assay [1] is less than 2.5 nM. Also, on plasma kallikrein, the IC90 is less than 500 nM.

For the compound `Cc1ccnc([C@H]2C[C@@H]2C(=O)Nc2cc(N(C)Cc3cn4cc(C5CC5)nc(N5CC(=O)N(C)C5=O)c4n3)ncn2)n1` [Example 83, (1S,2S)—N-(6-(((6-cyclopropyl-8-(3-methyl-2,4-dioxoimidazolidin-1-yl)imidazo[1,2-a]pyrazin-2-yl)methyl)(methyl)amino)pyrimidin-4-yl)-2-(4-methylpyrimidin-2-yl)cyclopropane-1-carboxamide], in assay [1], the concentration giving a half-maximal response (EC50) is less than 2.5 nM. In addition, the 90% effect concentration (IC90) at plasma kallikrein is less than 500 nM.

As to `Cc1ccnc([C@H]2C[C@@H]2C(=O)Nc2cc(N(C)Cc3cn4cc(C5CC5)nc(N5CCCC5=O)c4n3)ncn2)n1` [Example 85, (1S,2S)—N-(6-(((6-cyclopropyl-8-(2-oxopyrrolidin-1-yl)imidazo[1,2-a]pyrazin-2-yl)methyl)(methyl)amino)pyrimidin-4-yl)-2-(4-methylpyrimidin-2-yl)cyclopropane-1-carboxamide], the concentration for a half-maximal effect (EC50) in assay [1] is less than 2.5 nM. Further, the IC90 at plasma kallikrein is less than 500 nM.

In the case of `Cc1ccnc([C@H]2C[C@@H]2C(=O)Nc2cc(N(C)Cc3nc4cc(C5CC5)cc(N5CC(=O)N(C)C5=O)c4[nH]3)nc(C)n2)n1` [Example 86, (S,2S)—N-(6-(((5-cyclopropyl-7-(3-methyl-2,4-dioxoimidazolidin-1-yl)-1H-benzo[d]imidazol-2-yl)methyl)(methyl)amino)-2-methylpyrimidin-4-yl)-2-(4-methylpyrimidin-2-yl)cyclopropane-1-carboxamide], the EC50 in assay [1] was less than 2.5 nM. Further, on plasma kallikrein, the 90% effect concentration (IC90) lay within 500 to 5000 nM.

These data come from patent US20240226106A1, “INHIBITORS OF PLASMA KALLIKREIN” (SHIRE HUMAN GENETIC THERAPIES, INC., priority 2021, published 2024).
